From patent US20030139469A1, “Use of inhibitors of soluble epoxide hydrolase to inhibit vascular smooth muscle cell proliferation” (THE REGENTS OF THE UNIVERSITY OF CALIFORNIA, priority 2002, published 2003)

Legend:
human VSM cells [1] = assay: LDH release into media; format: cell-based; conditions: PDGF-BB or 10% serum, CDU 10 and 20 μM, FIG. 4b
Protocol: FIG. 4b. Human VSM cells were grown continuously in the presence of either 10% serum or PDGF-BB (30 ng/ml). Upon achieving confluency, the cells were incubated with CDU at the indicated concentrations and LDH release into the media was measured as described in Example 1. Evaluation of Cell Membrane Integrity and Toxicity. To evaluate the toxicity of compounds, as indicated by cellular trypan blue permeability, cells were plated in 35 mm dishes. After two days, the medium in the dish was replaced with fresh medium supplemented with the compound of interest or vehicle. At the indicated time post-treatment, the supernatant was removed and adherent cells were removed using trypsin. After dislodging the adherent cells, the cell suspension was pooled with the supernatant and centrifuged. The resulting cell pellet was resuspended and a trypan blue solution (0.4% in normal saline) was added to the aliquot. After incubating for approximately 5 minutes, the sample was evaluated by light microscopy. To evaluate lactate dehydrogenase (LDH) release, cells were harvested and plated onto 24 well plates and serum starved for one to two days. Test compounds were added and after 65 hours, media was removed for measurement of LDH activity. LDH activity was determined by NADH oxidation using Sigma Tox-7 in vitro toxicology kit and reported as the amount of LDH activity in the media.

[2] = biological target: soluble epoxide hydrolase (sEH); conditions: cited from earlier work
[3] = test system: human foreskin fibroblasts; assay: [3H]thymidine incorporation, human foreskin fibroblasts; format: cell-based; conditions: PDGF-BB stimulated, similar concentrations to VSM cells, FIG. 1d
Protocol: FIG. 1d. Human foreskin fibroblasts were treated similarly to VSM cells in FIG. 1a and [^3H]thymidine incorporation into DNA was assessed.

human VSM cells [4] = assay: [3H]thymidine incorporation into DNA, human VSM cells; format: cell-based; conditions: for inhibition of DNA synthesis ([3H]thymidine incorporation): CDU 1.0 to 20 μM
Protocol: Human VSM cells were grown to 80-90% confluence and serum-starved (except where indicated) for 1 day.
FIG. 1a. Immediately following PDGF-BB (30 ng/ml) stimulation, CDU or DMSO vehicle (as a control, indicated on chart as “cont”) was added at the concentrations indicated. After 18 h, thymidine incorporation into DNA was assessed as described in Example 1.
FIG. 1b. Human VSM cells grown and challenged as in FIG. 1a, but the cells were stimulated with 10% serum rather than with PDGF-BB.
Human VSM cells were grown to 80-90% confluence and serum-starved as in FIG. 1. PDGF-BB (30 ng/ml) was added to all but control wells, followed immediately by the addition of mixed EETs and/or CDU at the concentrations indicated of total EETs. [^3H]Thymidine was added for the last 6 h of incubation, and its incorporation into DNA was assessed as described in Materials and Methods. Error bars represent SD; *p<0.05 compared to PDGF alone. Data shown are representative of two independent experiments.
Human VSM cells were grown to 80-90% confluence and serum-starved as in FIG. 1. PDGF-BB (30 ng/ml) was added to all but control wells and, at the times indicated after PDGF addition, CDU (10 μM) was added. At time=0, CDU and PDGF were added simultaneously. [^3H]Thymidine was added for the last 6 h of incubation and its incorporation into DNA was assessed as described in Example 1. Error bars represent SD; *p<0.05 compared to PDGF alone. Data shown are representative of three independent experiments.
Cell Culture. Human aortic smooth muscle cells were obtained from Clonetics (San Diego Calif.) at passage 3 and were maintained in MCBD 131 media supplemented with 2.5% FBS, 5 mg/L bovine insulin, 2 ug/L human recombinant EGF, 1 ug/L human recombinant PDGF-BB (“PDGF” is platelet derived growth factor, which is composed of a dimer of two chains, the A chain and the B chain, “PDGF-BB is a 24.3 kD homodimer of two B chains), 100 u/ml of penicillin, 100 u/ml streptomycin, and 2.5 ug/ml amphotericin B. The cells were growth-arrested by placing them in quiescence medium containing MCDB 131 medium, 20 mM HEPES (pH 7.4), 5 mg/ml transferrin, 0.5 mg/ml BSA, 50 U/ml penicillin, 50 U/ml streptomycin, and 2.5 ug/ml amphotericin B. Quiescence medium was changed daily for 1-2 days before each experiment. HL-60 cells were obtained from ATCC or from D. Hyde (UC Davis). HL-60 cells were cultured at cell densities between 2×10^5 and 8×10^5 cells/mL in RPMI-1640 (Mediatech) supplemented with 10% fetal calf serum.
Proliferation Assays. [^3H]thymidine incorporation assays were performed. […] At the indicated times, the number of cells in the plate was calculated by subjecting the cells to trypsinization and the cell density quantitated by light microscopy using a hemocytometer.

VSM cells = assay: thymidine uptake into VSM cells; format: cell-based, human; conditions: 12 μM CDU vs DMSO vehicle, seconds to minutes, FIG. 1e
Protocol: FIG. 1e. CDU at the indicated concentrations was added to non-serum-starved cells and uptake of thymidine into the cells was assessed at the indicated times after its addition as described in Example 1. Error bars represent SD; *p<0.05 compared to (for FIGS. 1a and 1d) PDGF alone or (for FIG. 1b) serum alone or (for FIG. 1e) DMSO. Data shown are representative of at least two independent experiments.
Thymidine Uptake. To quantify thymidine uptake, 1.73×10^4 cells were distributed per well in a 24-well plate. […] The media was then adjusted to […] ^3H-methyl-thymidine (1 mCi/mL, 25 Ci/mmol, Amersham-Pharmacia). At the indicated times, medium was aspirated, the cells were washed three times with ice-cold PBS, and then incubated in 500 μL 1 M NaOH for 20 min. The mixture was neutralized with 0.5 mL 1 M HCl and diluted into scintillation fluid for liquid scintillation counting.

[5] = test system: HTB-30 breast cancer cells; assay: MTT assay HTB-30; format: cell-based; conditions: up to 40 μM
cyclin E = assay: Western blot cyclin E in VSM cells; format: cell-based, human; conditions: 10 μM, PDGF-BB, 6 to 18 h, FIG. 7
Protocol: Human VSM cells were grown to 80-90% confluence and serum-starved as in FIG. 1. […] Data shown are representative of at least two independent experiments. Western Blots. After treatment with appropriate compounds for the indicated times, cells were lysed, protein concentrations were determined by the Lowry method, and equal protein quantities were electrophoresed and Western blotted.

Compound: CCCCCCCCCCCCNC(=O)NC1CCCCC1 [CDU, 1-cyclohexyl-3-dodecyl urea]
- LDH appearance in the media (human VSM cells [1]): unchanged
- Ki [2]: 20 ± 2 nM
- [3H]thymidine incorporation [3]: inhibited
- time of CDU addition after PDGF with most profound inhibition (human VSM cells [4]; 10 μM CDU, PDGF-BB 30 ng/ml, FIG. 5): 4 h
- inhibition of DNA synthesis ([3H]thymidine incorporation) (human VSM cells [4]; 10% serum stimulated, FIG. 1b): dose-dependent inhibition of DNA synthesis
- inhibition of DNA synthesis ([3H]thymidine incorporation) (human VSM cells [4]; PDGF-BB (30 ng/ml) stimulated, 18 h, FIG. 1a): dose-dependent inhibition of DNA synthesis
- PDGF-stimulated [3H]thymidine incorporation (human VSM cells [4]; PDGF-BB, EETs 5 to 10 μM total, CDU 2.5 and 10 μM, separately or together, FIG. 3): inhibition of PDGF-stimulated [^3H]thymidine incorporation
- cellular uptake of thymidine (VSM cells): occurs to a similar extent
- toxicity, MTT assay [5]: no toxicity observed
- effect on cyclin E levels (cyclin E): minimal effect
